Molecules are shown by their SMILES.

As a reminder, the melting point is the temperature of the solid-liquid transition. `COC(=O)C[C@H](O)C[C@H](O)C=Cc1c(-c2ccc(F)cc2)c(-c2ccccc2)c(C(=O)NCc2ccc(F)cc2)n1C(C)C` showed a melting point of 68 to 69 °C. To `COc1ccc(-c2sc3c(c2OC(C)=O)CCCc2ccccc2-3)cc1` belongs 154 °C; to `COc1cc(C)c(CCCCCCCCCC(=O)CCCCCC(=O)O)c(O)c1OC`, 55 to 57 °C; to `Cc1cc(CO)n(CCCOc2cc3c(cc2C)OC2(CC(C)(C)c4cc(O)c(C)cc4O2)CC3(C)C)n1` (stereo not given), 208 to 210 °C. For `O=C1NCc2ccc(OCCCCN3CCN(c4cccc(Cl)c4Cl)CC3)nc2N1` the value was 166 to 167 °C. To `CC(C)(C)c1cc(CCc2cc(C(C)(C)C)c(O)c(C(C)(C)C)c2)cc(C(C)(C)C)c1O` belongs 170 to 171 °C; to `Cc1nnc2n1-c1sc(CCc3ccc(O)cc3)cc1C(c1ccccc1Cl)=NC2`, 100 °C. Compound `CC1(C)CN=C2C(c3ccccc3)=[N+]([O-])c3cc(C(F)(F)F)ccc3N2C1` showed a melting point of 225 to 227 °C. `CN(C)C=Nc1nc(OC(=O)c2ccccc2)ncc1F` registered a melting point of 136 to 138 °C.

As for `COc1ccc2[nH]c(C)c(C3CN4CCC3CC4)c2c1` (stereo not given), the melting point is 232 to 234 °C. To `Cc1cc(=O)n(-c2ccccc2)c2[nH]n(-c3ccccc3)c(=O)c12` belongs 145 to 147 °C; to `COc1ccc(C=C2SC(=S)N(CC(=O)O)C2=O)cc1`, 250 to 253 °C. To `O=C(O)c1cccc(-n2cnc3cc(-c4ccoc4)ccc32)c1` belongs 272 to 274 °C; to `CN1CCN(Cc2cc(C(=O)c3cccs3)cc(C(C)(C)C)c2O)CC1`, 118 to 119 °C. In turn, `O=C(Nc1cccc2c(Sc3ncc[nH]3)c(Br)cnc12)c1c(Cl)cccc1Cl` gave a melting point of 249 to 251 °C. Consider `COc1ccc(Nc2nc(-c3ccc(-c4ccccc4)cc3)cs2)nc1`, for which the melting point was in the range of 212 to 213 °C. For `CC1C(=O)N(c2ccc(Cl)cc2)C(=S)N1c1ccc(Cc2ccccc2)cc1` (stereo not given) the value was 144 °C; for `Oc1cc(CN/C=C2\CN=Cc3ccc(I)cc32)ccc1OC(F)F`, 254 to 255 °C. The compound `COCOc1cc(OC)c(OCOC)c(CCO)c1OC` displayed a melting point of 121 to 123 °C. For `CC(=O)Nc1ccc(S(=O)(=O)N[C@@H]2COCOC[C@H]2O)cc1` (relative stereo) the value was 161 to 163 °C. The compound `COc1cc2c(cc1O)CC(C)N(Cc1cc(OC)c(OC)c(OC)c1)C2` (stereo not given) registered a melting point of 127 to 132 °C.

Turning to `COC(=O)c1cccc2c(C#N)c(OC)ccc12`, the melting point was 210 to 211 °C. Consider `COC(=O)C12CCc3ccccc3C1=NN(C(=O)Nc1ccc(C(F)(F)F)cc1)C2` (stereo not given), for which the melting point was 177 to 180 °C. `COc1ccc(C=O)cc1-n1nnnc1C` displayed a melting point of 157 °C. `CCOC(=O)c1cn(-c2ccc(F)cc2C)c2c(C)c([N+](=O)[O-])c(F)cc2c1=O` returned a melting point of 207 to 209 °C. For `CCOCc1nc2c(N)nc3cc(-c4ccc(F)cc4)cnc3c2n1CC1(O)CCCC1` the value was 212 °C; for `CCOc1ccc2c(c1)cc1n2CCC1`, 101 to 102 °C; for `COc1ccc2c(CN3CCC[C@H]3C(=O)O)cc3cc4c(cc3c2c1)OCO4`, 145 to 146 °C. With `CS(=O)(=O)NCCCCCC1CCSS1` (stereo not given), the melting point was in the range of 43 to 46 °C. For `CC(C)N1CC2CC(CN(C(=O)Cc3ccc([N+](=O)[O-])cc3)C2)C1` the value was 93 to 94 °C. With `CCn1nc(-c2cccc(Cl)c2)c(C(C)=O)c(Nc2cccc3cccnc23)c1=O`, the melting point was 127 to 128 °C.

On to `O=C(O)CCC1C2CC3CC(C2)CC1C3` (stereo not given), for which the melting point was 116 °C. For `COCc1nc2cc3c(cc2[nH]1)NC(=O)C3(C)C` the value was 203 to 205 °C. Take `Clc1cc2ccccc2cn1`: the melting point was less than 50 °C. To `CC(=O)NC[C@H]1CN(c2ccc(N3CCC(=C(C#N)n4cncn4)CC3)c(F)c2)C(=O)O1` belongs 194 to 196 °C; to `C=C(C)COc1ccc(Br)cc1CN(CC)c1ccc(-c2cc(O)n(C)n2)nn1`, 151 to 152 °C.

The compound `N#Cc1ccc2ccc(=O)n(CCN3CCC(N)CC3)c2c1` returned a melting point of 138 °C.

In the case of `O=C(O)C1([N+](=O)[O-])C(c2ccc([N+](=O)[O-])cc2)N=C2C=CC=CN21` (stereo not given), the melting point is greater than 300 °C. To `CN(C)C=NC(=O)c1cc2c(cn1)[nH]c1ccccc12` belongs 254 to 257 °C. To `COC(=O)CS(=O)(=O)N1CC=C(c2ccc(Br)c(C)c2)CC1` belongs 110 to 112 °C; to `C[C@H]1C(=O)OCN1C(=O)OCc1ccccc1`, 89 to 91 °C; to `CSc1cc2nc[nH]c(=O)c2s1`, 216 to 218 °C. The compound `COC(=O)COc1cccc(-c2ccc(Cl)cc2)n1` gave a melting point of 60 to 63 °C. For `COc1ccc(C2C(C(=O)/C=C/c3ccc(OC)c(OC)c3)C(=O)CC(c3ccc(OC)c(OC)c3)C2[N+](=O)[O-])cc1` (stereo not given) the value was 158 to 160 °C. Compound `CC1Cc2cccc(-c3ccccc3)c2C(=O)O1` (stereo not given) yielded a melting point of 140 to 142 °C. On to `COc1ccc(-c2cc(Oc3c(C)cc(C)cc3C)nc(C)n2)cc1OC`, for which the melting point lay within 122 to 125 °C. To `CC(=O)OC(C(=O)c1cccnc1)c1cccnc1` (stereo not given) belongs 136 to 138 °C. To `C=CCOc1ccc(CCC(=O)O)cc1` belongs 88 to 89 °C; to `COc1ccc(C=Cc2cc(Br)c(OC)c(OC)c2)cc1O`, 108 to 109 °C.

Regarding `COc1ccc(C=O)c2cccnc12`, the melting point fell in the range of 121 to 122 °C. To `CON(C)C(=O)CC1CN=C(c2cc3cccc(N(C)S(=O)(=O)c4cccs4)c3[nH]2)S1` (stereo not given) belongs 153 to 154 °C. The compound `O=C1Nc2ccc(Cl)cc2C(C#Cc2ccccc2)(C(F)(F)Cl)O1` (racemic) displayed a melting point of 154 to 155 °C. `CC(C)C(=O)N(O)Cc1ccc2c(c1)Cc1ccccc1-2` registered a melting point of 163 to 166 °C. To `COc1ccc(C(=O)Nc2ccc3ccc(OCC(=O)N(C)C)nc3n2)cc1` belongs 165 °C.

Regarding `CC(=O)OC(C)C=C(C)c1ccc(-c2ccccc2)cc1` (stereo not given), the melting point was 62 to 64 °C.

In the case of `CS(=O)(=O)c1ccc(-c2cnn(-c3cccc(Cl)c3)c(=O)c2SCc2ccco2)cc1`, the melting point was in the range of 140 to 149 °C.

`O=C(O)COc1cccc2c1CCc1sc(S(=O)(=O)CC(c3ccccc3)c3ccccc3)nc1-2` gave a melting point of 168 to 170 °C. As to `O=C(O)c1cccc(CN2CCC(c3cn(Cc4cccs4)c4ccccc34)CC2)c1`, the melting point is 228 to 229 °C. For `Cc1cccc(NC(=O)NCC(=O)N(CC(=O)N2CCc3ccccc32)c2ccccc2)c1` the value was 190 °C; for `N#Cc1ccc(C(=O)C23CCCN2C(=O)N(c2cc(Cl)cc(Cl)c2)C3=O)cc1` (stereo not given), 72.1 °C; for `CC(C)(C)OC(=O)N(CCN)CCN(CCN)C(=O)OC(C)(C)C`, 81 to 82 °C.

`COc1cc(C(=O)c2cnc(Cl)nc2Cl)cc(OC)c1OC` had a melting point of 140 to 141 °C. To `Cc1cccc(-c2ccnc3c(C#N)cnn23)c1` belongs 161 to 162 °C; to `Cc1c(C)c2c(c(C)c1O)CCC(C)(C(=O)NC1CCN(c3ccc(NC(=N)c4cccs4)cc3)C1)O2` (stereo not given), 135 to 138 °C. For `CCN(CC)CCN(CCN1CCCCC1)c1ccc(-c2nc3ccccc3[nH]2)cc1` the value was 190 to 191 °C; for `Clc1ccc2[nH]c3c(c2c1)CN(CCc1ccc2ccccc2n1)CC3`, 187 to 190 °C. `O=C(Nc1nc(=O)c2cnn3c2n1CC=C3c1cccc(C(F)(F)F)c1)OCC(Cl)(Cl)Cl` returned a melting point of 225 to 226 °C. `Cc1nc2c(N)nc3ccccc3c2n1CCC(N)=O` gave a melting point of 237 to 239 °C. For `COc1ccc2ccc(N3C(=O)C4=C(SCC(OC)CS4)C3OC(=O)N3CCN(C)CC3)nc2n1` (stereo not given) the value was 215 °C; for `COC(=O)C1CC(O)CN1C(=O)c1ccc2c(c1)OCCO2` (stereo not given), 185 °C; for `CC(=O)N1CCCn2nc(-c3ccncc3)c(-c3ccc(F)cc3)c21`, 184 to 185 °C.

Consider `Cc1nccn1-c1nc(-c2ccc(Cl)cc2)c(CCCCO)o1`, for which the melting point was in the range of 110 to 111 °C.

In the case of `O=C(NC1CCC(c2cc(Nc3cccc(C(F)(F)F)c3)n[nH]2)C1)C1CCC1` (stereo not given), the melting point stood at 232 °C.

In turn, `CNC(=S)C1(c2cccnc2)CCCCC1NOCCO` (stereo not given) showed a melting point of 142 to 145 °C.

`Cc1c(Cc2cccc(C(F)(F)F)c2)sc2c(-c3cc(C(=O)O)ccn3)cccc12` came in with a melting point of 271 to 272 °C. For `COC(=O)Oc1ccc(F)cc1Br` the value was 75 to 78 °C; for `C=CCOc1ccc(OCCBr)cc1`, 27 to 28 °C. To `CN1CNS(=O)(=O)c2cc(O)ccc21` belongs 168 to 172 °C. Compound `O=C1CCCNc2ccc(Br)cc21` displayed a melting point of 99 to 101 °C. With `Sc1nnc(Cc2ccc(Cl)cc2)o1`, the melting point stood at 115 °C. Compound `O=C(O)c1ccc2c(c1)CCc1c(F)cccc1C2=O` yielded a melting point of 248 to 250 °C.

Regarding `Cc1nc2c(O)nc3ccccc3c2n1C`, the melting point is greater than 300 °C.

`O=c1ccc(-c2ccc(Cc3nn[nH]n3)cc2)cn1Cc1ccc(Cl)cc1` returned a melting point of 231 °C. To `N#CC(C#N)=C(O)c1ccc(Oc2ccccc2)cc1` belongs 160 to 162 °C.

`CCO/C(=N/O)C1Cc2cc(C(=O)c3ccccc3F)c(O)c(C)c2O1` (stereo not given) showed a melting point of 70 to 71 °C.

`O=Cc1ccc(OCc2ccccc2)c(OCc2ccccc2)c1OCc1ccccc1` showed a melting point of 73 to 74 °C. For `C=C(CN(C)C)C(O)c1ncc2c(c1O)COC2c1ccc(Cl)cc1` (stereo not given) the value was 195 to 200 °C. For `Clc1ccc2[nH]nc(N3CCNCC3)c2c1` the value was 60 to 62 °C; for `CS(=O)(=O)c1ccc(C(=O)c2c(S(C)(=O)=O)noc2C2CC2)c(Cl)c1`, 150 °C; for `CCOC(=O)c1cn(C2CC2)c2nc(N3CCC(NCC(C)=O)C3)c(F)cc2c1=O` (stereo not given), 203 to 204 °C.
